Measurements: patent US20230404976A1, “PHARMACEUTICAL COMBINATION CONTAINING CAPSID PROTEIN INHIBITOR AND NUCLEOSIDE ANALOG” (priority 2020, published 2023)

Tested on: HBV DNA in mouse serum (rAAV8-1.3HBV, type D, ayw)
Test: AAV/HBV mouse model: qPCR quantification of HBV DNA in mouse serum
Type: in vivo, C57BL/6 mice
Settings: for HBV DNA (log10, copy/μL) time (days) post-dose: 3: day 3; for HBV DNA (log10, copy/μL) time (days) post-dose: 3 / HBV DNA (log10, copy/μL) time (days) post-dose: 7 / HBV DNA (log10, copy/μL) time (days) post-dose: 14 / HBV DNA (log10, copy/μL) time (days) post-dose: 21 / HBV DNA (log10, copy/μL) time (days) post-dose: 28: i.g. days 0-27; for HBV DNA (log10, copy/μL) time (days) post-dose: 7: day 7; for HBV DNA (log10, copy/μL) time (days) post-dose: 14: day 14; for HBV DNA (log10, copy/μL) time (days) post-dose: 21: day 21; for HBV DNA (log10, copy/μL) time (days) post-dose: −1: day −1 (before first dose)
Method: Male C57BL/6 mice, 5 weeks old, free of specific pathogens, purchased from Shanghai Slac Laboratory Animal Co., Ltd., housed in independent ventilated cages. The mice were acclimatized for 3 days and then injected with the AAV/HBV virus.
rAAV8-1.3HBV (type D, ayw) was purchased from FivePlus, Beijing. It was diluted with sterile PBS to 5×10^11 v.g./mL before experiment. Each mouse was injected with 200 μL, i.e., 1×10^11 v.g.
AAV/HBV injection: rAAV8-1.3HBV was prepared into a 1×10^11 v.g./200 μL solution with sterile PBS in advance before injection. Mice were injected with 200 μL of the rAAV8-1.3HBV solution via the tail vein.
Grouping: On day 27 post virus injection, according to the serum HBV DNA, HBeAg and HBsAg results on days 14 and 21, the mice were randomized into groups of 8 or 4 and correspondingly treated according to the experimental design.
Group number: • i. Solvent group; • ii. Monotherapy group: entecavir; • iii. Monotherapy group: the compound of formula I 3 mpk; • iv. Combination group (combo): the compound of formula I 3 mpk and entecavir; • v. Monotherapy group: the compound of formula I 10 mpk; • vi. Combination group (combo): the compound of formula I 10 mpk and entecavir.
Compound treatment: On day 28 post infection, all mice were intragastrically administered a solvent or compound. The day of the first administration was counted as day 0 of experiment, and the duration of administration was from day 0 to day 27. Entecavir was administered once daily (QD) and the compound of formula I was administered twice daily (BID, 8 hr/16 hr apart). The administration volume was 10 mL/kg.
Non-endpoint blood collection: On day −1, 3, 7, 14, 21, 28, 35 or 42, about 120 μL of blood was collected from the submandibular vein, and serum was collected and assayed for HBV DNA. If blood collection and administration were on the same day, blood collection was performed about 5 hours after the first administration on that day.
Endpoints of experiment: mice in groups i-iv were euthanized on day 28. Blood was collected from the hearts of the mice, and serum was collected and assayed for HBV DNA. The endpoints of experiment for groups v and vi were on day 42.
qPCR Quantification of HBV DNA in mouse serum: The DNA was extracted from serum, and the experiment was performed by following the instructions for QIAamp 96 DNA Blood Kit. qPCR conditions: 95 ° C., 10 min, 1 cycle; 95° C., 15 s; 60° C., 1 min; 40 cycles.
Data were expressed as mean ±standard error, and statistical analysis was performed using Student t test.

[1] = entecavir 0.001 mg/kg QD, compound of formula I 3 mg/kg BID, mean ± standard error, LLOQ 2.08
[2] = compound of formula I 10 mg/kg BID, entecavir 0.001 mg/kg QD, values below LLOQ expressed as 2.08
[3] = day 28 (endpoint), entecavir 0.001 mg/kg QD, compound of formula I 3 mg/kg BID, mean ± standard error, LLOQ 2.08
[4] = Table 4 groups: entecavir 0.001 mg/kg QD, compound of formula I 3 mg/kg BID, i.g., mean ± standard error

Structure (SMILES)	HBV DNA (log10, copy/μL) time (days) post-dose: 3 [1]	HBV DNA (log10, copy/μL) time (days) post-dose: 7 [1]	HBV DNA (log10, copy/μL) time (days) post-dose: 14 [2]	HBV DNA (log10, copy/μL) time (days) post-dose: 14 [1]	HBV DNA (log10, copy/μL) time (days) post-dose: 21 [2]	HBV DNA (log10, copy/μL) time (days) post-dose: 21 [1]	HBV DNA (log10, copy/μL) time (days) post-dose: 28 [3]	HBV DNA (log10, copy/μL) time (days) post-dose: 28 (day 28, compound of formula I 10 mg/kg BID, entecavir 0.001 mg/kg QD, values below LLOQ expressed as 2.08)	HBV DNA (log10, copy/μL) time (days) post-dose: 31 (day 31 (after end of dosing on day 27), compound of formula I 10 mg/kg BID, entecavir 0.001 mg/kg QD, i.g., LLOQ 2.08)	HBV DNA (log10, copy/μL) time (days) post-dose: 35 (day 35 (after end of dosing on day 27), compound of formula I 10 mg/kg BID, entecavir 0.001 mg/kg QD, i.g., LLOQ 2.08)	HBV DNA (log10, copy/μL) time (days) post-dose: 42 (day 42 (endpoint, after end of dosing on day 27), compound of formula I 10 mg/kg BID, entecavir 0.001 mg/kg QD, i.g., LLOQ 2.08)	HBV DNA (log10, copy/μL) time (days) post-dose: −1 [4]	HBV DNA (log10, copy/μL) time (days) post-dose: −1 (Table 5 groups: compound of formula I 10 mg/kg BID, entecavir 0.001 mg/kg QD, i.g., mean ± standard error)
C[C@]1(NC(=O)C(=O)c2c(Cl)c(C(=O)Nc3cc(F)c(F)c(F)c3)c3n2CCC3)CC[C@H](CC(=O)O)CC1 [Compound of formula I, 2-((1r,4r)-4-(2-(6-chloro-7((3,4,5-trifluorophenyl)carbamoyl)-2,3-dihydro-1H-pyrrolin-5-yl)-2-oxalylamino)-4-methylcyclohexyl)acetic acid]	3.71 ± 0.10 log10, copy/μL	3.63 ± 0.09 log10, copy/μL	2.10 ± 0.02 log10, copy/μL	3.71 ± 0.06 log10, copy/μL	2.08 ± 0.00 log10, copy/μL	3.61 ± 0.11 log10, copy/μL	3.96 ± 0.11 log10, copy/μL	2.12 ± 0.04 log10, copy/μL	3.56 ± 0.12 log10, copy/μL	4.38 ± 0.09 log10, copy/μL	4.64 ± 0.08 log10, copy/μL	4.46 ± 0.07 log10, copy/μL	4.45 ± 0.07 log10, copy/μL
C=C1[C@H](CO)[C@@H](O)C[C@@H]1n1cnc2c(=O)[nH]c(N)nc21 [Entecavir, 2-amino-9-[(1S,3R,4S)-4-hydroxy-3-hydroxymethyl-2-methylenecyclopentyl]-1,9-dihydro-6H-purin-6-one, reference compound]	3.11 ± 0.10 log10, copy/μL	2.69 ± 0.11 log10, copy/μL	–	2.75 ± 0.13 log10, copy/μL	–	2.79 ± 0.12 log10, copy/μL	2.70 ± 0.17 log10, copy/μL	–	–	–	–	4.19 ± 0.12 log10, copy/μL	–
